Earlier results as cited in patent EP2168584A1, “PHARMACEUTICAL COMPOSITION COMPRISING THE COMBINATION OF A TRIAZOLOBENZODIAZEPINE AND A SELECTIVE SEROTONIN REUPTAKE INHIBITOR” (World Trade Import-Export, WTIE A.G., priority 2007, dated 2009).
Where two headings read alike, the source gives them in different places.

Experiments:
[1] = test system: human serum proteins
[2] = test system: plasma proteins
[3] = relative to the therapeutic activity of Alprazolam

In the case of Cc1nnc2n1-c1ccc(Cl)cc1C(c1ccccc1)=NC2 [Alprazolam], the “half-life of plasma elimination, range” value (human, in vivo) is listed as 6.3 to 26.9 h, the “Maximum plasma concentrations are obtained (time after administration)” value (human, in vivo, po) is listed as 1 to 2 h and the “bound to human serum proteins” value [1] is listed as 80%.
In the case of CNCCC(Oc1ccc(C(F)(F)F)cc1)c1ccccc1 (stereo not drawn) [Fluoxetine], the “degree of fixation of plasma proteins” value [2] is given as “especially high”.
For Fc1ccc([C@@H]2CCNC[C@H]2COc2ccc3c(c2)OCO3)cc1 [Paroxetine], the elimination half-life (elderly and severe hepatic failure patients) is given as ≤ 36 h, the oral bioavailability (first-step metabolism) is given as 50% and the elimination half-life (human, in vivo) is given as 21 h. The dose metabolized (mainly in the liver, inactive metabolites) was “More than 95%”, the “degree of fixation of plasma proteins” value [2] was “especially high” and the “binds to plasma proteins” value ([2]; plasma) was 95%.
For CN[C@H]1CC[C@@H](c2ccc(Cl)c(Cl)c2)c2ccccc21 [Sertraline], the “degree of fixation of plasma proteins” value [2] is given as “especially high”.
For OCc1nnc2n1-c1ccc(Cl)cc1C(c1ccccc1)=NC2 [alpha-hydroxy-alprazolam], the “biological activity of metabolite” value [3] is given as “approximately to half of the therapeutic activity of Alprazolam”.
